Measured values as given in US20230026616A1, “PYRIMIDOIMIDAZOLE COMPOUNDS USED AS DNA-PK INHIBITORS” (MEDSHINE DISCOVERY INC., priority 2019, published 2023).

Legend:
[1] = Pharmacokinetic evaluation in Beagle dogs; type: in vivo, Male Beagle dogs; details: for Tlast / AUC(0-t) / C0 / clearance / half-life / Vd / Cmax / Tmax: Beagle dog plasma; for F: Beagle dog, PO 5 mpk vs IV 1 mpk; for AUC(0-t) / C0 / clearance / half-life / Vd / Cmax / Tmax: male; for Vd: read-out: Vdss
Source text: (§1) IV: intravenous injection; PO: oral; C0: instantaneous […] concentration after intravenous injection; Cmax: highest plasma concentration after administration; Tmax: time required to reach peak of drug concentration after administration; T1/2: time required for the plasma drug concentration to decrease by half, Vdss: apparent volume of distribution, refers to the proportional constant of the drug dose in vivo and the blood drug concentration when the drug reaches a dynamic equilibrium in vivo. Cl: clearance rate, refers to the […] cleared from the body per unit time; Tlast: time at the last detection point; AUC0-last: area under the drug-time curve, refers to the area covered by the plasma concentration curve and the time axis; F: a measure of the speed and degree of drug absorption into the blood circulation, which is an important indicator for evaluating the degree of drug absorption.
(§2) Test compounds were mixed with 10% dimethyl sulfoxide/50% polyethylene glycol 200/40% water, vortexed and sonicated to prepare a nearly clear solution of 1 mg/mL, then filtered through a microporous membrane for next step. Male Beagle dogs were selected and administered intravenously with the candidate compound solution at a dose of 1 mg/kg. Test compounds were mixed with 10% dimethyl sulfoxide/50% polyethylene glycol 200/40% water, vortexed and sonicated to prepare a nearly clear solution of 1 mg/mL, then filtered with a microporous membrane for next step. Male Beagle dogs were selected and orally administered with the candidate compound solution at a dose of 5 mg/kg. Whole blood was collected for a certain period of time, and plasma was prepared, then drug concentration was detected by LC-MS/MS method, and pharmacokinetic parameters were calculated by Phoenix WinNonlin software (Pharsight, USA).

[2] = Pharmacokinetic evaluation in mice (2), plasma; type: in vivo, Balb/c male mice
Source text: as §1
Test compounds were mixed with […]/50% polyethylene glycol 200/40% water, vortexed and sonicated to prepare a nearly clear solution of 0.4 mg/mL (compound 5), then filtered through a microporous membrane for next step. Balb/c male mice of 18 to 20 grams were selected and administered intravenously with the candidate compound solution at a dose of 2 mg/kg. Test compounds were mixed with 10% dimethyl sulfoxide/50% polyethylene glycol 200/40% water, vortexed and sonicated to prepare a nearly clear solution of 1 mg/mL, then filtered with a microporous membrane for next step. Balb/c male mice of 18 to 20 grams were selected and orally administered with the candidate compound solution at a dose of 10 mg/kg. Whole blood was collected for a certain period of time, and plasma was prepared, then drug concentration was detected by LC-MS/MS method, and pharmacokinetic parameters were calculated by Phoenix WinNonlin software (Pharsight, USA).

[3] = Pharmacokinetic evaluation in cynomolgus monkeys; type: in vivo, Male cynomolgus monkeys
Source text: as §1
as §2, with “compound was” for “compounds were”, “cynomolgus monkeys” for “Beagle dogs”

[4] = Pharmacokinetic evaluation (1): cassette PK in Balb/c male mice, plasma; type: in vivo; details: for AUC(0-t) / C0 / clearance / half-life / Vd / Cmax / Tmax: male, Balb/c; for AUC(0-t) / C0 / clearance / half-life / Vd / Cmax / Tmax / Tlast: mouse plasma; for Vd: read-out: Vdss; for Tmax: read-out: Tmax; for F: mouse
Method: Test compounds were mixed with 10% dimethyl sulfoxide/50% polyethylene glycol 200/40% water (compounds 1, 4, 10, 17) or 20% N,N-dimethylacetamide/80% water (compound 5), vortexed and sonicated to prepare a nearly clear solution of 0.08 mg/mL (compounds 1, 4, 10, 17) or 0.50 mg/mL (compound 5), then filtered through a microporous membrane for next step. Balb/c male mice of 18 to 20 grams were selected and administered intravenously with the candidate compound solution at a dose of 0.4 (compounds 1, 4, 10, 17) or 1 mg/kg (compound 5). Test compounds were mixed with 10% dimethyl sulfoxide/50% polyethylene glycol 200/40% water (compounds 1, 4, 10, 17) or 20%-hydroxypropyl-β-cyclodextrin (compound 5), vortexed and sonicated to prepare a nearly clear solution of 0.2 mg/mL (compounds 1, 4, 10, 17) or 1 mg/mL (compound 5), then filtered through a microporous membrane for next step. Balb/c male mice of 18 to 20 grams were selected and orally administered with the candidate compound solution at a dose of 2 (compounds 1, 4, 10, 17) or 5 mg/kg (compound 5). Whole blood was collected for a certain period of time, and plasma was prepared, then drug concentration was detected by LC-MS/MS method, and pharmacokinetic parameters were calculated by Phoenix WinNonlin software (Pharsight, USA).
as §1

[5] = male, Balb/c, 2 mg/kg, mouse plasma, IV 2 mpk
[6] = male, Balb/c, 10 mg/kg, mouse plasma, PO 10 mpk
[7] = male, 1 mg/kg, cynomolgus monkey plasma, IV 1 mpk
[8] = male, 5 mg/kg, cynomolgus monkey plasma, PO 5 mpk

## Cc1cc2ncnn2cc1Nc1ncc2c(n1)n(N1CC3CCC(C1)O3)c(=O)n2C [Compound 5]
[1]; IV 1 mpk
  Tlast: 24 h
[1]; PO 5 mpk
  Tlast: 24 h
[1]
  F: 279%
[1]; 1 mg/kg, IV 1 mpk
  AUC(0-t): 4.96 µM·h
  C0: 1820 nM
  clearance: 8.26 mL/min/kg
  half-life: 242 min
  Vd: 1.87 L/kg
[1]; 5 mg/kg, PO 5 mpk
  AUC(0-t): 68.3 µM·h
  Cmax: 9.27 µM
  Tmax: 1.67 h
  half-life: 256 min
[2]; [5]
  AUC(0-t): 3.45 µM·h
  C0: 4.74 µM
  clearance: 23.7 mL/min/kg
  half-life: 44 min
[2]; male, Balb/c, 2 mg/kg, mouse plasma, IV 2 mpk, read-out: Vdss
  Vd: 1.07 L/kg
[2]; [6]
  AUC(0-t): 23.2 µM·h
  Cmax: 11.4 µM
  Tmax: 30 min
  half-life: 51 min
[2]; mouse plasma, IV 2 mpk
  Tlast: 8 h
[2]; mouse plasma, PO 10 mpk
  Tlast: 10 h
[2]; mouse, PO 10 mpk vs IV 2 mpk
  F: 134%
[3]; cynomolgus monkey plasma, PO 5 mpk
  Tlast: 12 h
[3]; cynomolgus monkey, PO 5 mpk vs IV 1 mpk
  F: 115%
[3]; [7]
  AUC(0-t): 2.44 µM·h
  C0: 2290 nM
  clearance: 16.8 mL/min/kg
  half-life: 216 min
[3]; male, 1 mg/kg, cynomolgus monkey plasma, IV 1 mpk, read-out: Vdss
  Vd: 1.52 L/kg
[3]; [8]
  AUC(0-t): 14 µM·h
  Cmax: 4.5 µM
  Tmax: 1.17 h
  half-life: 81 min
[4]; IV 1 mg/kg
  AUC(0-t): 1.66 µM·h
  C0: 3600 nM
  clearance: 24.7 mL/min/kg
  half-life: 76.8 min
  Vd: 1.49 L/kg
[4]; PO 5 mg/kg
  AUC(0-t): 3.49 µM·h
  Cmax: 2170 nM
  half-life: 231 min
  Tmax: 15 min
  Tlast: 10 h
[4]; PO 5 mg/kg vs IV 1 mg/kg
  F: 44.5%

## Cc1cc2nncn2cc1Nc1ncc2c(n1)n(N1CC3CCC(C1)O3)c(=O)n2C [Compound 17]
[1]; IV 1 mpk
  Tlast: 24 h
[1]; PO 5 mpk
  Tlast: 24 h
[1]
  F: 92.3%
[1]; 1 mg/kg, IV 1 mpk
  AUC(0-t): 6.82 µM·h
  C0: 1450 nM
  clearance: 5.89 mL/min/kg
  half-life: 302 min
  Vd: 1.58 L/kg
[1]; 5 mg/kg, PO 5 mpk
  AUC(0-t): 31.5 µM·h
  Cmax: 4.94 µM
  Tmax: 1.5 h
  half-life: 256 min
[4]; IV 0.4 mg/kg
  AUC(0-t): 0.47 µM·h
  C0: 748 nM
  clearance: 34.7 mL/min/kg
  half-life: 33.5 min
  Vd: 1.39 L/kg
  Tlast: 4 h
[4]; PO 2 mg/kg
  AUC(0-t): 3.4 µM·h
  Cmax: 1540 nM
  half-life: 48.6 min
  Tmax: 60 min
  Tlast: 8 h
[4]; PO 2 mg/kg vs IV 0.4 mg/kg
  F: 144%
